Experimental data from the NIST ThermoML archive (doi:10.1016/j.jct.2006.06.008).

Test: xn = mol fraction of the nth substance listed
Conditions: 101 kPa, Liquid

C1CCCCC1 [cyclohexane] + CCCCO
Conditions	mass density, 293.15 K [kg/m3]	mass density, 298.15 K [kg/m3]	mass density, 303.15 K [kg/m3]	speed of sound, 293.15 K [m/s]	speed of sound, 298.15 K [m/s]	speed of sound, 303.15 K [m/s]	viscosity, 293.15 K [mPa·s]	viscosity, 298.15 K [mPa·s]	viscosity, 303.15 K [mPa·s]
x1 = 0.0491	807.27	803.41	799.52	1254	1237	1220	2.777	2.437	2.147
x1 = 0.0988	804.96	801.04	797.08	1252	1234	1217	2.593	2.278	2.009
x1 = 0.2003	800.76	796.72	792.63	1249	1230	1211	2.254	1.984	1.756
x1 = 0.3081	796.54	792.37	788.15	1246	1227	1207	1.937	1.712	1.514
x1 = 0.4082	792.86	788.57	784.23	1245	1224	1204	1.684	1.492	1.33
x1 = 0.5125	789.41	785.01	780.55	1245	1224	1202	1.449	1.293	1.16
x1 = 0.6157	786.28	781.77	777.21	1247	1225	1202	1.257	1.13	1.023
x1 = 0.7086	783.78	779.19	774.55	1250	1227	1204	1.121	1.014	0.928
x1 = 0.8022	781.56	776.91	772.21	1255	1231	1208	1.047	0.955	0.874
x1 = 0.9029	779.62	774.9	770.14	1263	1239	1215	0.995	0.904	0.829
x1 = 0.9519	778.88	774.15	769.37	1269	1244	1220	0.972	0.889	0.817
x1 = 1	778.62	773.92	769.19	1279	1254	1230	0.968	0.887	0.816

CCO [ethanol] + C1CCCCC1
x2 = 0
Conditions	mass density [kg/m3]	speed of sound [m/s]	viscosity [mPa·s]
293.15 K	789.75	1162	1.187
298.15 K	785.46	1145	1.082
303.15 K	781.15	1128	0.987
